Target: T1, ctEzh2 (ctPRC2) (Thermochaetoides thermophila, UniProt G0SDW4)
T1 construct: gene EZH2; Fusion of Ezh2 (residues 191–950) and the VEFS domain of Suz12 (residues 530–691), and full length Eed (residues 1–565); with Eed, Suz12(VEFS)
T1 sequence (G0SDW4 191-950): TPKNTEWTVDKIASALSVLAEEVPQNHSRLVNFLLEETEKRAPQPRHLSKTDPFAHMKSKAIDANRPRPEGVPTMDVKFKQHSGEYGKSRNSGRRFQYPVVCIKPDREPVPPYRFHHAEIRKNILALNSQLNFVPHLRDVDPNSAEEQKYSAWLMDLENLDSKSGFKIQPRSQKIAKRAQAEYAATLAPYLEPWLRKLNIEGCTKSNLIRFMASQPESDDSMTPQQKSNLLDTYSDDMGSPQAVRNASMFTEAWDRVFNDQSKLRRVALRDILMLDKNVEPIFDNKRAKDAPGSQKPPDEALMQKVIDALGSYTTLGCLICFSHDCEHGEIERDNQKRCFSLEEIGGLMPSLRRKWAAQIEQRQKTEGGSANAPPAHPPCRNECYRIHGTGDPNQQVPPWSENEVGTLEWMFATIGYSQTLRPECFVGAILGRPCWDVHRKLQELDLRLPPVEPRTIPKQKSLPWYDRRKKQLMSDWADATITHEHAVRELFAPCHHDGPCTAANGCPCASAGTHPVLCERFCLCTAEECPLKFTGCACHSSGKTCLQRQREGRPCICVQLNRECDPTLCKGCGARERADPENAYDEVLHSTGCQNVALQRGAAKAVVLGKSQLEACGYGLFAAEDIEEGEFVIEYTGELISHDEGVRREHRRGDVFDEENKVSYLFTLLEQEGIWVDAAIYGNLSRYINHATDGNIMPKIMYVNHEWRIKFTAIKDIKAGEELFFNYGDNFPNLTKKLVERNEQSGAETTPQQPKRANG
T1 sequence (G0S8H7 1-565 partner): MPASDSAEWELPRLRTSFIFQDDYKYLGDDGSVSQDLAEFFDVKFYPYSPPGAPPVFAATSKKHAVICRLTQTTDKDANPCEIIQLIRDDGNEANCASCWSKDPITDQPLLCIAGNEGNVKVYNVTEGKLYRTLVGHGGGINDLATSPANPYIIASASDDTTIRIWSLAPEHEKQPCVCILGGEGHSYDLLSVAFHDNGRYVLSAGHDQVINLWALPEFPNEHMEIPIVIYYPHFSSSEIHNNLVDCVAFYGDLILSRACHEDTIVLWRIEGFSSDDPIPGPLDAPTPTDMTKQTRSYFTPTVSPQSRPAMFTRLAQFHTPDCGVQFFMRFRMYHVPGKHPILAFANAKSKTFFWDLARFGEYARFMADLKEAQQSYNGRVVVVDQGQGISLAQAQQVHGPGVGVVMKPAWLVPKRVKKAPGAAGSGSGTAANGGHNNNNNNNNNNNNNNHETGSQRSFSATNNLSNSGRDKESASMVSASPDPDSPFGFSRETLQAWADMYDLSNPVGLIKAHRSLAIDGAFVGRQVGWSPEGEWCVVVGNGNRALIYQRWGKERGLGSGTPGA
T1 sequence (G0RYC6 530-691 partner): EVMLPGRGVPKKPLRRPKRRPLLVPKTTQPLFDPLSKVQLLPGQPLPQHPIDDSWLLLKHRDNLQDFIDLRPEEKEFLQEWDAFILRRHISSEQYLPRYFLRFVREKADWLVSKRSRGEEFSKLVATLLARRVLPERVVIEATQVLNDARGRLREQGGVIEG
Experiment: co-crystal structure ([…] Å, soaked); radiometric methyltransferase IC50
Assay type: biochemical

## CC[C@H](C)n1cc(C)c2c(C(=O)NCc3c(C)cc(C)[nH]c3=O)cc(-c3ccc(N4CCNCC4)nc3)cc21 [GSK126]
  IC50: ~100 µM

From publication PMC6002473, “An Evolutionarily Conserved Structural Platform for PRC2 Inhibition by a Class of Ezh2 Inhibitors” (Scientific Reports, 2018)
